What was measured:
Format in all cases: functional, cell-based
[1] = molecular target: T1, Taste receptor type 2 member 10 (Homo sapiens) (UniProt Q9NYW0); assay: Activity at human TAS2R10 expressed in HEK-293T-Galpha16-gustducin44 cells assessed as threshold concentration of compound at which point receptor detects compounds by measuring calcium response by FLIPR assay
T1 sequence (whole entry): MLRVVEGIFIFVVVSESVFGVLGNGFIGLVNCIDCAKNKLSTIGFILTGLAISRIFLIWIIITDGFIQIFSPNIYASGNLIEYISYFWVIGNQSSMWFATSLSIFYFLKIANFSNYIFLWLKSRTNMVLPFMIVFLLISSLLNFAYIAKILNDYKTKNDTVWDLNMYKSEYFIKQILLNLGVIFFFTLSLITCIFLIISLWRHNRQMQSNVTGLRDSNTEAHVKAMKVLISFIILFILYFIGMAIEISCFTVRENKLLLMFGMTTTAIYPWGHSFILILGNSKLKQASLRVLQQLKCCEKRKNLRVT

[2] = molecular target: T2, Taste receptor type 2 member 45 (Homo sapiens) (UniProt P59539); assay: Activity at human TAS2R45 expressed in HEK-293T-Galpha16-gustducin44 cells assessed as threshold concentration of compound at which point receptor detects compounds by measuring calcium response by FLIPR assay
T2 sequence (whole entry): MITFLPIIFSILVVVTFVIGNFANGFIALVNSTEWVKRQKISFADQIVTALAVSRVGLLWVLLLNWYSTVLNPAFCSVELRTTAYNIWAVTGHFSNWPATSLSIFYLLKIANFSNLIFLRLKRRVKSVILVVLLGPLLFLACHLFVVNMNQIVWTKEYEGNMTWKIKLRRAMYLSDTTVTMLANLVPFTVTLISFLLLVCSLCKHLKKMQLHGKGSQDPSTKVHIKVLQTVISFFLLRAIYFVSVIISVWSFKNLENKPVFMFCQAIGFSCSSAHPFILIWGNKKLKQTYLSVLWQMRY

[3] = molecular target: T3, Taste receptor type 2 member 46 (Homo sapiens) (UniProt P59540); assay: Activity at human TAS2R46 expressed in HEK-293T-Galpha16-gustducin44 cells assessed as threshold concentration of compound at which point receptor detects compounds by measuring calcium response by FLIPR assay
T3 sequence (whole entry): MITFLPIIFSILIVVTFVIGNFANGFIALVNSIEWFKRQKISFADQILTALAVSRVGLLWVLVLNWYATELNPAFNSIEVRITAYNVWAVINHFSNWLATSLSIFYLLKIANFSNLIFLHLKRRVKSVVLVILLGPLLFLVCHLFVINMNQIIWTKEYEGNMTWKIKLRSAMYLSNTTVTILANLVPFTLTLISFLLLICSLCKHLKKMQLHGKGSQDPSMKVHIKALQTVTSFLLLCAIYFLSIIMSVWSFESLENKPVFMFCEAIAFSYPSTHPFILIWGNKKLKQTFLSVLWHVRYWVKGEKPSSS

[4] = molecular target: T4, Taste receptor type 2 member 19 (Homo sapiens) (UniProt P59542); assay: Activity at human TAS2R48 expressed in HEK-293T-Galpha16-gustducin44 cells assessed as threshold concentration of compound at which point receptor detects compounds by measuring calcium response by FLIPR assay
T4 sequence (whole entry): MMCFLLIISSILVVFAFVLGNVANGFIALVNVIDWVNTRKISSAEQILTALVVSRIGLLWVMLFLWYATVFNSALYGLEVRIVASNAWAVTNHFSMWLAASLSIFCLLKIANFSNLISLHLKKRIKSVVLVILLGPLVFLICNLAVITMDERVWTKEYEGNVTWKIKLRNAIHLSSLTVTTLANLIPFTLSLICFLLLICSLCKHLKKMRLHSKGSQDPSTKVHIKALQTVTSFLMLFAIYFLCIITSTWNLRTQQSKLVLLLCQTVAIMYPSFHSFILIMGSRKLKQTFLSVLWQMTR

In the case of `CC1=C[C@@H]2[C@@H]3C4C(=C(C)[C@@H]3[C@@]13[C@@H]2[C@@](C)(O)CC[C@H]1[C@H](C)C(=O)O[C@@H]13)[C@H]1OC(=O)[C@@H](C)[C@@H]1CC[C@]4(C)O` (some centres undefined), the Activity [1] is reported as 0.01 mM, the Activity [2] is reported as 0.003 mM and the Activity [3] is reported as 0.001 mM. The Activity [4] was 0.03 mM.

Reference: ChEMBL document CHEMBL4419120, “Bitter taste receptors” (2015)
